Patent US20070099841A1, “Prodrugs of T3 and T4 with enhanced bioavailability” (New River Pharmaceuticals Inc., priority 2005, published 2007)
“And” between values parts separate entries of the source, which are not always exact repeats. Identical values can stand only once. Like-named read-outs stand apart in the source and are kept apart here.

Key:
[1] = design: species or system Sprague-Dawley rats; details: rat, in vivo
Experimental: Compounds were tested in Sprague-dawley rats (˜250 g). Defined doses were delivered as oral solutions in 0.5% sodium bicarbonate buffer with T3 sodium salt containing 12 mcgT3/kg or triiodothyronine composition containing the equivalent amount of T3. Rats were dosed immediately following 0 hour serum collection. Serum was collected from rats at 2, 4, 6, 9, 12 and 24 hours after capsule delivery. Total serum T3 concentrations were determined by ELISA using a commercially available kit (Total Triiodothyronine (total T3) ELISA KIT, product #1700, ALPHA DIAGNOSTIC, San Antonio, Tex.). Total serum T4 concentrations were determined by ELISA using a commercially available kit (Total Thyronine (Total T4) ELISA KIT, product #1100, ALPHA DIAGNOSTIC, San Antonio, Tex.).
The general procedures described above were employed for the experimental data described below. These procedures are subject to minor variations in timing and weight of rats, etc.
(§1) T3 sodium, G-T3, V-T3, I-T3, Y-T3, A2-T3, P2-T3, or F2-T3 were administered at equimolar doses to Sprague-Dawley rats (12 μg/kg T3; HED˜120 μg T3 sodium; n=6, per group) that were hypothyroid due to removal of the thyroid gland approximately one week prior to evaluation. Serum was collected at 0 (pre-dose), 1, 2, 4, 6, 8 and 12 hours post-dose and analyzed for total T3 and TSH by chemiluminescent immunoassay (Immulite CIA). […] At 1 hour post dose the mean level of Total T3 was 327.3, 429.5, 432.7, 403.3, 431, and 433.1 ng/ml for G-T3, V-T3, I-T3, Y-T3, P2-T3, and F2-T3 dosed animals respectively as compared to 577 ng/ml for T3 sodium dosed animals. Applicants note that some variation in these values may be present as with A2-T3 (FIGS. 15 and 16).

TSH = assay: Serum TSH after oral administration to hypothyroid rats (chemiluminescent immunoassay); format: in vivo, Sprague-Dawley rats; details: for TSH levels in response to administration: oral 12 μg/kg T3; for Individual animal TSH: individual animals 1-6, oral 12 μg/kg T3
Experimental: as §1

[2] = 0 h (pre-dose), mean n=6, oral 12 μg/kg T3
[3] = 1 h, mean n=6, oral 12 μg/kg T3
[4] = 2 h, mean n=6, oral 12 μg/kg T3
[5] = 4 h, mean n=6, oral 12 μg/kg T3
[6] = 6 h, mean n=6, oral 12 μg/kg T3
[7] = 8 h, mean n=6, oral 12 μg/kg T3
[8] = 12 h, mean n=6, oral 12 μg/kg T3

SMILES: O=C(O)[C@H](Cc1cc(I)c(Oc2ccc(O)c(I)c2)c(I)c1)NC(=O)[C@@H]1CCCN1C(=O)[C@@H]1CCCN1 [P2-T3]
- Total T3 AUC, % (of T3) [1]: 92.3%
- Total T3Δ dAUC, % (of T3) [1]: 97.9%
- Variability of T3 absorption compared with T3 sodium [1]: decreased variability of T3 absorption
- mean level of Total T3 at 1 hour post dose ([1]; po): 431 ng/mL
- TSH, mean (TSH; [2]): 2.988 μIU
- TSH, mean (TSH; [3]): 2.438 μIU
- TSH, mean (TSH; [4]): 1.363 μIU
- TSH, mean (TSH; [5]): 0.346 μIU
- TSH, mean (TSH; [6]): 0.21 μIU
- TSH, mean (TSH; [7]): 0.189 μIU
- TSH, mean (TSH; [8]): 0.735 μIU
- TSH levels in response to administration (TSH): decreased rapidly

SMILES: N[C@@H](Cc1cc(I)c(Oc2ccc(O)c(I)c2)c(I)c1)C(=O)O [T3 sodium, 3,3′,5-triiodo-L-thyronine]
- Tmax, % T3 ([1]; Sprague-Dawley): 100%
- Tmax, Low − High ([1]; Sprague-Dawley): 1 − 6
- Total T3 AUC, % (of T3) ([1]; Sprague-Dawley): 100%
- Total T3 AUClast, % T3 ([1]; Sprague-Dawley): 100%
- Total T3 Cmax, % T3 ([1]; Sprague-Dawley): 100%
- Total T3Δ AUClast, % T3 ([1]; Sprague-Dawley): 100%
- Total T3Δ Cmax, % T3 ([1]; Sprague-Dawley): 100%
- Total T3Δ dAUC, % (of T3) ([1]; Sprague-Dawley): 100%
- Total T3 Tmax ([1]; Sprague-Dawley, po, 12 ug/kg): 3.2 h
- Total T3 Tmax, mean ([1]; Sprague-Dawley, po, 12 ug/kg): 3.2 h
- Total T3Δ Tmax, mean ([1]; Sprague-Dawley, po, 12 ug/kg): 3.2 h
- mean level of Total T3 at 1 hour post dose ([1]; Sprague-Dawley, po, 1 h): 577 ng/mL
- Total T3 AUClast, Low − High [1]: 4292 − 6421 ng · h/dL
- Total T3 Cmax, Low − High [1]: 484 − 915 ng/dL
- Total T3Δ AUClast, Low − High [1]: 3688 − 5526 ng · h/dL
- Total T3Δ Cmax, Low − High [1]: 444 − 875 ng/dL
- Total T3 AUC ([1]; po, 12 ug/kg): 5171
- Individual animal TSH (TSH; 0 h (pre-dose)): 1.840 μIU and 2.296 μIU and 2.088 μIU and 2.480 μIU and 1.884 μIU and 2.572 μIU
- TSH, mean (TSH; [2]): 2.193 μIU
- Individual animal TSH (TSH; 1 h): 1.680 μIU and 1.796 μIU and 1.924 μIU and 2.580 μIU and 1.868 μIU and 2.344 μIU
- TSH, mean (TSH; [3]): 2.032 μIU
- Individual animal TSH (TSH; 2 h): 1.264 μIU and 1.284 μIU and 0.920 μIU and 1.116 μIU and 1.080 μIU and 1.180 μIU
- TSH, mean (TSH; [4]): 1.141 μIU
- Individual animal TSH (TSH; 4 h): 0.240 μIU and 0.252 μIU (2×) and 0.204 μIU and 0.200 μIU and 0.312 μIU
- TSH, mean (TSH; [5]): 0.243 μIU
- Individual animal TSH (TSH; 6 h): 0.116 μIU and 0.140 μIU and 0.136 μIU and 0.120 μIU (2×) and 0.160 μIU
- TSH, mean (TSH; [6]): 0.132 μIU
- Individual animal TSH (TSH; 8 h): 0.080 μIU and 0.156 μIU and 0.152 μIU and 0.132 μIU and 0.108 μIU and 0.188 μIU
- TSH, mean (TSH; [7]): 0.136 μIU
- Individual animal TSH (TSH; 12 h): 0.120 μIU and 0.260 μIU and 0.256 μIU and 0.416 μIU and 0.300 μIU
- TSH, mean (TSH; [8]): 0.270 μIU
- TSH, mean (TSH; 12 h, mean n=6, oral 12 μg/kg T3, listed as T3): 0.27 μIU
- TSH levels in response to administration (TSH): decreased rapidly

SMILES: CC(C)[C@H](N)C(=O)N[C@@H](Cc1cc(I)c(Oc2ccc(O)c(I)c2)c(I)c1)C(=O)O [V-T3]
- Total T3 AUC, % (of T3) [1]: 94.9%
- Total T3Δ dAUC, % (of T3) [1]: 98.6%
- Variability of T3 absorption compared with T3 sodium [1]: decreased variability of T3 absorption
- mean level of Total T3 at 1 hour post dose ([1]; po): 429.5 ng/mL
- TSH, mean (TSH; [2]): 2.309 μIU
- TSH, mean (TSH; [3]): 2.212 μIU
- TSH, mean (TSH; [4]): 1.123 μIU
- TSH, mean (TSH; [5]): 0.282 μIU
- TSH, mean (TSH; [6]): 0.174 μIU
- TSH, mean (TSH; [7]): 0.175 μIU
- TSH, mean (TSH; [8]): 0.54 μIU
- TSH levels in response to administration (TSH): decreased rapidly

SMILES: N[C@@H](Cc1ccc(O)cc1)C(=O)N[C@@H](Cc1cc(I)c(Oc2ccc(O)c(I)c2)c(I)c1)C(=O)O [Y-T3]
- Total T3 AUC, % (of T3) [1]: 95.5%
- Total T3Δ dAUC, % (of T3) [1]: 100.4%
- Variability of T3 absorption compared with T3 sodium [1]: decreased variability of T3 absorption
- mean level of Total T3 at 1 hour post dose ([1]; po): 403.3 ng/mL
- TSH, mean (TSH; [2]): 2.595 μIU
- TSH, mean (TSH; [3]): 2.648 μIU
- TSH, mean (TSH; [4]): 1.601 μIU
- TSH, mean (TSH; [5]): 0.471 μIU
- TSH, mean (TSH; [6]): 0.27 μIU
- TSH, mean (TSH; [7]): 0.221 μIU
- TSH, mean (TSH; [8]): 0.651 μIU
- TSH levels in response to administration (TSH): decreased rapidly
